The compounds below were run against T1, human RXFP1 (Homo sapiens, UniProt Q9HBX9) (assay: hRXFP1 HEK293 cAMP assay (HTRF)). Settings: HEK293 cells stably expressing human RXFP1; 30 min at rt; intracellular cAMP by HTRF.
T1 construct: expressed in transfected cells
T1 sequence (Q9HBX9 1-757): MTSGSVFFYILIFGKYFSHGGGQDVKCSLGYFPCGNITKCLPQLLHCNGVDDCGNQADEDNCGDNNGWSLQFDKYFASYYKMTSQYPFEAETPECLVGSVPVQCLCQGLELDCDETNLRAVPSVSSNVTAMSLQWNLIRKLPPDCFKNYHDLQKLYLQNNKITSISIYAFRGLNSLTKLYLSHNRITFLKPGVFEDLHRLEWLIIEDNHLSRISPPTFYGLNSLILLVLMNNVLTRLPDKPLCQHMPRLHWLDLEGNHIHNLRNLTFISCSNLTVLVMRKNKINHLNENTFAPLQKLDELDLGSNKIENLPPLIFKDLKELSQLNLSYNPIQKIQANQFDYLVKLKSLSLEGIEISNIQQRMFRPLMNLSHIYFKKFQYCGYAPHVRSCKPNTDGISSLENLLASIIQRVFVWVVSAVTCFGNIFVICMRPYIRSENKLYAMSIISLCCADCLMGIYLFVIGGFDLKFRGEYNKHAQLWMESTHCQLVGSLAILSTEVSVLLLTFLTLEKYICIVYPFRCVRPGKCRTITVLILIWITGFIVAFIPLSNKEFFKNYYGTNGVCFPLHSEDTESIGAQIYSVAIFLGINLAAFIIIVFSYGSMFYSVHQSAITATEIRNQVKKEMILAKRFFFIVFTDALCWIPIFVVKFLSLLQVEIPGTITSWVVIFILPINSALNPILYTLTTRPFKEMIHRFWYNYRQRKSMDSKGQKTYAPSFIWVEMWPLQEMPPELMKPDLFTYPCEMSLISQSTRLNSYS
Assay type: cell-based
Procedure: RXFP1 Cyclic Adenosine Monophosphate (cAMP) Assays. Human embryonic kidney cells 293 (HEK293) cells and HEK293 cells stably expressing human RXFP1, were cultured in MEM medium supplemented with 10% qualified FBS, and 300 μg/ml hygromycin (Life Technologies). Cells were dissociated and suspended in assay buffer. The assay buffer was HBSS buffer (with calcium and magnesium) containing 20 mM HEPES, 0.05% BSA, and 0.5 mM IBMX. Cells (3000 cells per well, except 1500 cell per well for HEK293 cells stably expressing human RXFP1) were added to 384-well Proxiplates (Perkin-Elmer). Cells were immediately treated with test compounds in DMSO (2% final) at final concentrations in the range of 0.010 nM to 50 μM. Cells were incubated for 30 min at rt. The level of intracellular cAMP was determined using the HTRF HiRange cAMP assay reagent kit (Cisbio) according to manufacturer's instructions. Solutions of cryptate conjugated anti-cAMP and d2 fluorophore-labelled cAMP were made in a supplied lysis buffer separately. Upon completion of the reaction, the cells were lysed with equal volume of the d2-cAMP solution and anti-cAMP solution. After a 1 h rt incubation, time-resolved fluorescence intensity was measured using the Envision (Perkin-Elmer) at 400 nm excitation and dual emission at 590 nm and 665 nm. A calibration curve was constructed with an external cAMP standard at concentrations ranging from 2.7 μM to 0.1 pM by plotting the fluorescent intensity ratio from 665 nm emission to the intensity from the 590 nm emission against cAMP concentrations. The potency and activity of a compound to […] cAMP production was then determined by fitting to a 4-parametric logistic equation from a plot of cAMP level versus compound concentrations.
The examples disclosed below were tested in the human RXFP1 (hRXFP1) HEK293 cAMP assay described above and found to have agonist activity.

EC50 [nM] | Compound
375 | COc1ccc(N2CCCC(C(=O)O)C2)cc1C(=O)Nc1c(C(=O)Nc2ccc(F)c(C(F)(F)F)c2)sc2cc(C(F)(F)F)ccc12 (single isomer, unassigned) [Example 4, 1-(3-((2-((4-fluoro-3-(trifluoromethyl)phenyl)carbamoyl)-6-(trifluoromethyl)benzo[b]thiophen-3-yl)carbamoyl)-4-methoxyphenyl) piperidine-3-carboxylic acid]
150 | COc1ccc(N2CCCC(C(=O)O)C2)cc1C(=O)Nc1c(C(=O)Nc2ccc(F)c(C(F)(F)F)c2)sc2cc(C(F)(F)F)ccc12 (single isomer, unassigned) [Example 5, 1-(3-((2-((4-fluoro-3-(trifluoromethyl)phenyl)carbamoyl)-6-(trifluoromethyl)benzo[b]thiophen-3-yl)carbamoyl)-4-methoxyphenyl) piperidine-3-carboxylic acid]
349 | COc1ccc(N2CCCC(C(=O)NS(C)(=O)=O)C2)cc1C(=O)Nc1c(C(=O)Nc2ccc(F)c(C(F)(F)F)c2)sc2cc(C(F)(F)F)ccc12 (single isomer, unassigned) [Example 6, 1-(3-((2-((4-fluoro-3-(trifluoromethyl)phenyl)carbamoyl)-6-(trifluoromethyl)benzo[b]thiophen-3-yl)carbamoyl)-4-methoxyphenyl)-N-(methylsulfonyl) piperidine-3-carboxamide]
661 | COc1ccc(N2CCCC(C(=O)NCC(C)(C)O)C2)cc1C(=O)Nc1c(C(=O)Nc2ccc(F)c(C(F)(F)F)c2)sc2cc(C(F)(F)F)ccc12 (single isomer, unassigned) [Example 7, 1-(3-((2-((4-fluoro-3-(trifluoromethyl)phenyl)carbamoyl)-6-(trifluoromethyl)benzo[b]thiophen-3-yl)carbamoyl)-4-methoxyphenyl)-N-(2-hydroxy-2-methylpropyl) piperidine-3-carboxamide]
2020 | COc1ccc(N2CCCC(C(=O)NCC(C)(C)O)C2)cc1C(=O)Nc1c(C(=O)Nc2ccc(F)c(C(F)(F)F)c2)sc2cc(C(F)(F)F)ccc12 (single isomer, unassigned) [Example 8, 1-(3-((2-((4-fluoro-3-(trifluoromethyl)phenyl)carbamoyl)-6-(trifluoromethyl)benzo[b]thiophen-3-yl)carbamoyl)-4-methoxyphenyl)-N-(2-hydroxy-2-methylpropyl) piperidine-3-carboxamide]
2380 | COc1ccc(N2CCC(NCCO)C2)cc1C(=O)Nc1c(C(=O)Nc2ccc(F)c(C(F)(F)F)c2)sc2cc(C(F)(F)F)ccc12 (single isomer, unassigned) [Example 9, N-(4-fluoro-3-(trifluoromethyl)phenyl)-3-(5-(3-((2-hydroxyethyl)amino)pyrrolidin-1-yl)-2-methoxybenzamido)-6-(trifluoromethyl) benzo[b]thiophene-2-carboxamide]
954 | COc1ccc(-c2cc(C(NC(=O)C3CCOCC3)C(F)(F)F)ccc2F)cc1C(=O)Nc1c(C(=O)Nc2ccc(F)c(C(F)(F)F)c2)sc2cc(C(F)(F)F)ccc12 (single isomer, unassigned) [Example 20, N-(2,2,2-trifluoro-1-(6-fluoro-3′-((2-((4-fluoro-3-(trifluoromethyl)phenyl)carbamoyl)-6-(trifluoromethyl)benzo[b]thiophen-3-yl)carbamoyl)-4′-methoxy-[1,1′-biphenyl]-3-yl)ethyl)tetrahydro-2H-pyran-4-carboxamide]
363 | COc1ccc(-c2cc(C(NC(=O)C3CCOCC3)C(F)(F)F)ccc2F)cc1C(=O)Nc1c(C(=O)Nc2ccc(F)c(C(F)(F)F)c2)sc2cc(C(F)(F)F)ccc12 (single isomer, unassigned) [Example 21, N-(2,2,2-trifluoro-1-(6-fluoro-3′-((2-((4-fluoro-3-(trifluoromethyl)phenyl)carbamoyl)-6-(trifluoromethyl)benzo[b]thiophen-3-yl)carbamoyl)-4′-methoxy-[1,1′-biphenyl]-3-yl)ethyl)tetrahydro-2H-pyran-4-carboxamide]
3100 | COc1ccc(-c2cnc(C3(O)CCS(=O)(=O)C3)nc2)cc1C(=O)Nc1c(C(=O)Nc2ccc(F)c(C(F)(F)F)c2)sc2cc(C(F)(F)F)ccc12 (single isomer, unassigned) [Example 23, N-(4-fluoro-3-(trifluoromethyl)phenyl)-3-(5-(2-(3-hydroxy-1,1-dioxidotetrahydrothiophen-3-yl)pyrimidin-5-yl)-2-methoxybenzamido)-6-(trifluoromethyl)benzo[b]thiophene-2-carboxamide]
3360 | COc1ccc(-c2cnc(C3(O)CCS(=O)(=O)C3)nc2)cc1C(=O)Nc1c(C(=O)Nc2ccc(F)c(C(F)(F)F)c2)sc2cc(C(F)(F)F)ccc12 (single isomer, unassigned) [Example 24, N-(4-fluoro-3-(trifluoromethyl)phenyl)-3-(5-(2-(3-hydroxy-1,1-dioxidotetrahydrothiophen-3-yl)pyrimidin-5-yl)-2-methoxybenzamido)-6-(trifluoromethyl)benzo[b]thiophene-2-carboxamide]
3.8 | COc1ccc(-c2cccc(C(NC(=O)C3CCOCC3)C(=O)O)c2)cc1C(=O)Nc1c(C(=O)Nc2ccc(F)c(C(F)(F)F)c2)sc2cc(C(F)(F)F)ccc12 (single isomer, unassigned) [Example 25, 2-(3′-((2-((4-fluoro-3-(trifluoromethyl)phenyl)carbamoyl)-6-(trifluoromethyl)benzo[b]thiophen-3-yl)carbamoyl)-4′-methoxy-[1, 1′-biphenyl]-3-yl)-2-(tetrahydro-2H-pyran-4-carboxamido) acetic acid]
718 | COc1ccc(C2CCCC(O)C2)cc1C(=O)Nc1c(C(=O)Nc2ccc(F)c(C(F)(F)F)c2)sc2cc(C(F)(F)F)ccc12 (single isomer, unassigned) [Example 32, N-(4-fluoro-3-(trifluoromethyl)phenyl)-3-(5-(3-hydroxycyclohexyl)-2-methoxybenzamido)-6-(trifluoromethyl)benzo[b]thiophene-2-carboxamide]
216 | COc1ccc(C2CCCC(O)C2)cc1C(=O)Nc1c(C(=O)Nc2ccc(F)c(C(F)(F)F)c2)sc2cc(C(F)(F)F)ccc12 (single isomer, unassigned) [Example 33, N-(4-fluoro-3-(trifluoromethyl)phenyl)-3-(5-(3-hydroxycyclohexyl)-2-methoxybenzamido)-6-(trifluoromethyl)benzo[b]thiophene-2-carboxamide]
850 | COc1ccc(C2CCCC(C)(O)C2)cc1C(=O)Nc1c(C(=O)Nc2ccc(F)c(C(F)(F)F)c2)sc2cc(C(F)(F)F)ccc12 (single isomer, unassigned) [Example 34, N-(4-fluoro-3-(trifluoromethyl)phenyl)-3-(5-(3-hydroxy-3-methylcyclohexyl)-2-methoxybenzamido)-6-(trifluoromethyl)benzo[b]thiophene-2-carboxamide]

Compound | EC50 [nM]
2-(3′-((2-((4-fluoro-3-(trifluoromethyl) phenyl) carbamoyl)-6-(trifluoromethyl) benzo[b]thiophen-3-yl) carbamoyl)-4′-methoxy-[1, 1′-biphenyl]-3-yl)-2-(tetrahydro-2H-pyran-4-carboxamido) acetic acid [Example 26] | 153

From patent US20260265233A1, “BENZOTHIOPHENE DERIVATIVES AS RXFP1 AGONISTS” (BRISTOL-MYERS SQUIBB COMPANY, priority 2021, published 2026)
